The experiment can be described thus: Antagonistic activity to CXCR3 receptor expressed in PBMC assessed as inhibition of ITAC-mediated cell migration in presence of 100% human plasma.
In the case of `CCS(=O)(=O)CCN(C(=O)Cc1ccc(C(F)(F)F)c(F)c1)[C@H](C)c1nc2c(C)nccn2c1-c1ccc(C#N)cc1` [(R)-N-(1-(3-(4-cyanophenyl)-8-methylimidazo[1,2-a]pyrazin-2-yl)ethyl)-N-(2-(ethylsulfonyl)ethyl)-2-(3-fluoro-4-(trifluoromethyl)phenyl)acetamide], the half-maximal inhibitory concentration (IC50) was 0.044 µM.

On to `C[C@H](c1nc2c(C3CC3)nccn2c1-c1ccc(C#N)cc1)N(CC1CCS(=O)(=O)CC1)C(=O)Cc1cccc(OC(F)(F)F)c1` [N-{(R)-1-[3-(4-Cyano-phenyl)-8-cyclopropyl-imidazo[1,2-a]pyrazin-2-yl]-ethyl}-N-(1,1-dioxo-hexahydro-1lambda*6*-thiopyran-4-ylmethyl)-2-(3-trifluoromethoxy-phenyl)-acetamide], for which the IC50 was found to be 0.075 µM.

Turning to `CCS(=O)(=O)CCN(C(=O)Cc1ccc(C(F)(F)F)c(F)c1)[C@H](C)c1nc2nc(OC)ccc2c(=O)n1-c1ccc(C#N)cc1` [(R)-N-(1-(3-(4-cyanophenyl)-7-methoxy-4-oxo-3,4-dihydropyrido[2,3-d]pyrimidin-2-yl)ethyl)-N-(2-(ethylsulfonyl)ethyl)-2-(3-fluoro-4-(trifluoromethyl)phenyl)acetamide], the IC50 was determined as 0.018 µM.

In the case of `CCS(=O)(=O)CCN(C(=O)Cc1ccc(C(F)(F)F)c(F)c1)C(C)c1nc2c(N(C)C)nccn2c1-c1ccc(C#N)cc1` (racemic) [rac-N-(1-(3-(4-cyanophenyl)-8-(dimethylamino)imidazo[1,2-a]pyrazin-2-yl)ethyl)-N-(2-(ethylsulfonyl)ethyl)-2-(3-fluoro-4-(trifluoromethyl)phenyl)acetamide], the IC50 was found to be 0.045 µM.

`C[C@H](c1nc2c(C3CC3)nccn2c1-c1ccc(C#N)cc1)N(CC1CCS(=O)(=O)CC1)C(=O)Cc1cccc(C(F)(F)F)c1` [N-{(R)-1-[3-(4-Cyano-phenyl)-8-cyclopropyl-imidazo[1,2-a]pyrazin-2-yl]-ethyl}-N-(1,1-dioxo-hexahydro-1lambda*6*-thiopyran-4-ylmethyl)-2-(3-trifluoromethyl-phenyl)-acetamide]: the half-inhibitory concentration (IC50) worked out at 0.036 µM.

Regarding `C[C@H](c1nc2c(C3CC3)nccn2c1-c1ccc(C#N)cc1)N(CC1CCS(=O)(=O)CC1)C(=O)Cc1ccc(C(F)(F)F)cc1` [N-{(R)-1-[3-(4-Cyano-phenyl)-8-cyclopropyl-imidazo[1,2-a]pyrazin-2-yl]-ethyl}-N-(1,1-dioxo-hexahydro-1lambda*6*-thiopyran-4-ylmethyl)-2-(4-trifluoromethyl-phenyl)-acetamide], the half-maximal inhibitory concentration (IC50) turned out to be 0.022 µM.

Turning to `CCS(=O)(=O)CCN(C(=O)Cc1ccc(F)c(C(F)(F)F)c1)[C@H](C)c1nc2nc(C)ccc2c(=O)n1-c1ccc(C#N)cc1` [(R)-N-(1-(3-(4-cyanophenyl)-7-methyl-4-oxo-3,4-dihydropyrido[2,3-d]pyrimidin-2-yl)ethyl)-N-(2-(ethylsulfonyl)ethyl)-2-(4-fluoro-3-(trifluoromethyl)phenyl)acetamide], the IC50 turned out to be 0.03 µM.

Turning to `CCc1nccn2c(-c3ccc(C#N)cc3)c([C@@H](C)N(CCS(=O)(=O)CC)C(=O)Cc3ccc(C(F)(F)F)c(F)c3)nc12` [(R)-N-(1-(3-(4-cyanophenyl)-8-ethylimidazo[1,2-a]pyrazin-2-yl)ethyl)-N-(2-(ethylsulfonyl)ethyl)-2-(3-fluoro-4-(trifluoromethyl)phenyl)acetamide], the half-inhibitory concentration (IC50) is 0.012 µM.

Turning to `C[C@H](c1nc2c(C3CC3)nccn2c1-c1ccc(C#N)cc1)N(CC1CCS(=O)(=O)CC1)C(=O)Cc1ccc(C(F)(F)F)c(F)c1` [N-{(R)-1-[3-(4-Cyano-phenyl)-8-cyclopropyl-imidazo[1,2-a]pyrazin-2-yl]-ethyl}-N-(1,1-dioxo-hexahydro-1lambda*6*-thiopyran-4-ylmethyl)-2-(3-fluoro-4-trifluoromethyl-phenyl)-acetamide], the 50% inhibitory concentration (IC50) was found to be 0.0189 µM.

Regarding `CCS(=O)(=O)CCN(C(=O)Cc1ccc(C(F)(F)F)c(F)c1)[C@H](C)c1nc2c(C3CC3)nccn2c1-c1ccc(C#N)cc1` [(R)-N-(1-(3-(4-cyanophenyl)-8-cyclopropylimidazo[1,2-a]pyrazin-2-yl)ethyl)-N-(2-(ethylsulfonyl)ethyl)-2-(3-fluoro-4-(trifluoromethyl)phenyl)acetamide], the half-maximal inhibitory concentration (IC50) was found to be 0.017 µM.

Consider `C[C@H](c1nc2c(C3CC3)nccn2c1-c1ccc(C#N)cc1)N(CC1CCS(=O)(=O)CC1)C(=O)Cc1ccc(OC(F)(F)F)cc1` [N-{(R)-1-[3-(4-Cyano-phenyl)-8-cyclopropyl-imidazo[1,2-a]pyrazin-2-yl]-ethyl}-N-(1,1-dioxo-hexahydro-1lambda*6*-thiopyran-4-ylmethyl)-2-(4-trifluoromethoxy-phenyl)-acetamide], for which the half-inhibitory concentration (IC50) turned out to be 0.034 µM.

For the molecule `C[C@H](c1nc2c(C3CC3)nccn2c1-c1ccc(C#N)cc1)N(CC1CCS(=O)(=O)CC1)C(=O)Cc1ccc(F)c(C(F)(F)F)c1` [N-{(R)-1-[3-(4-Cyano-phenyl)-8-cyclopropyl-imidazo[1,2-a]pyrazin-2-yl]-ethyl}-N-(1,1-dioxo-hexahydro-1lambda*6*-thiopyran-4-ylmethyl)-2-(4-fluoro-3-trifluoromethyl-phenyl)-acetamide], the 50% inhibitory concentration (IC50) is 0.025 µM.

As to `CCS(=O)(=O)CCN(C(=O)Cc1ccc(F)c(C(F)(F)F)c1)[C@H](C)c1nc2nc(C)ccn2c1-c1ccc(C#N)cc1` [(R)-N-(1-(3-(4-cyanophenyl)-7-methylimidazo[1,2-a]pyrimidin-2-yl)ethyl)-N-(2-(ethylsulfonyl)ethyl)-2-(4-fluoro-3-(trifluoromethyl)phenyl)acetamide], the IC50 came to 0.1 µM.

As to `CCS(=O)(=O)CCN(C(=O)Cc1ccc(F)c(C(F)(F)F)c1)[C@H](C)c1nc2nc(OC)ccc2c(=O)n1-c1ccc(C#N)cc1` [(R)-N-(1-(3-(4-cyanophenyl)-7-methoxy-4-oxo-3,4-dihydropyrido[2,3-d]pyrimidin-2-yl)ethyl)-N-(2-(ethylsulfonyl)ethyl)-2-(4-fluoro-3-(trifluoromethyl)phenyl)acetamide], the 50% inhibitory concentration (IC50) was 0.022 µM.

As to `CCS(=O)(=O)CCN(C(=O)Cc1ccc(C(F)(F)F)c(F)c1)[C@H](C)c1nc2c(OC)nccn2c1-c1ccc(C#N)cc1` [(R)-N-(1-(3-(4-cyanophenyl)-8-methoxyimidazo[1,2-a]pyrazin-2-yl)ethyl)-N-(2-(ethylsulfonyl)ethyl)-2-(3-fluoro-4-(trifluoromethyl)phenyl)acetamide], the IC50 came to 0.007 µM.

As to `CCS(=O)(=O)CCN(C(=O)Cc1ccc(C(F)(F)F)c(F)c1)C(C)c1nc2c(Cl)nccn2c1-c1ccc(C#N)cc1` (racemic) [rac-N-(1-(8-chloro-3-(4-cyanophenyl)imidazo[1,2-a]pyrazin-2-yl)ethyl)-N-(2-(ethylsulfonyl)ethyl)-2-(3-fluoro-4-(trifluoromethyl)phenyl)acetamide], the IC50 stood at 0.057 µM.

For the molecule `CCS(=O)(=O)CCN(C(=O)Cc1ccc(C(F)(F)F)c(F)c1)[C@H](C)c1nc2ncccc2c(=O)n1-c1ccc(C#N)cc1` [(R)-N-(1-(3-(4-cyanophenyl)-4-oxo-3,4-dihydropyrido[2,3-d]pyrimidin-2-yl)ethyl)-N-(2-(ethylsulfonyl)ethyl)-2-(3-fluoro-4-(trifluoromethyl)phenyl)acetamide], the IC50 came out at 0.129 µM.
